Where a name gives a salt, the structure may show the parent alone. Read-outs that look alike come from different tables or passages of the source.
What was measured:
[1] = biological target: T1, recombinant human Lp-PLA2 (Homo sapiens, UniProt Q13093); experiment: (1b) hrThioPAF assay, recombinant human Lp-PLA2; format: biochemical; settings: Examples 266-412 were tested here, one experiment or average of multiple experiments, read-out: rhLp-PLA2 (pIC50) (converted)
T1 sequence (Q13093 22-441): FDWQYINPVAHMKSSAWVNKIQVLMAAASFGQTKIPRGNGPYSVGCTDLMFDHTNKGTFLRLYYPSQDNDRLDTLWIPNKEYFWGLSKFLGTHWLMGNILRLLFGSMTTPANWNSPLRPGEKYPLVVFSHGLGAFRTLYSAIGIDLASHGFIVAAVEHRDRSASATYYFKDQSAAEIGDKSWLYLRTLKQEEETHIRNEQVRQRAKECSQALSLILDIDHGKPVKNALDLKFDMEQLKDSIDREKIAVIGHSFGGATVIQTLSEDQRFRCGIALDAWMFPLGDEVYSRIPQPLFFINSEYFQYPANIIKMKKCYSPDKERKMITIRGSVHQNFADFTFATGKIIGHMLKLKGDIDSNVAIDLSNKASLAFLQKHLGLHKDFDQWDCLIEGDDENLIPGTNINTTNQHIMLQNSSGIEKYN
Description: 1-O-Hexadecyl-2-deoxy-2-thio-S-acetyl-sn-glyceryl-3-phosphorylcholine (2-thio-PAF) is a substrate for PAF-hydrolases (PAF-AH) commercially available from Cayman Chemical. Upon cleavage with PAF-AH, the free thiol is released at the sn-2 position and can then react with 7-diethylamino-3-(4′-maleimidylphenyl)-4-methylcoumarin (CPM) a thiol-reactive coumarin. This reaction (Michael addition) results in an increase in fluorescence. Inhibitors of Lp-PLA2 therefore prevent this cleavage and no fluorescent increase is observed.
The Thio-PAF assay was run as an unquenched 20 μL assay. The source plate containing the compounds to be tested was prepared by making 1:3 (by volume) serial dilution of the compounds within DMSO on 384-well microplate. Then, 5 μL of the compounds on compound source plate were transferred into 384 well Greiner 784076 (black) plates using STAR+(Hamilton) liquid dispenser. 10 μL of recombinant human Lp-PLA2 enzyme (20 pM rhLp-PLA2 in assay buffer of 50 mM HEPES, pH 7.4, 150 mM NaCl, 1 mM CHAPS) was added to each well of the plate. 5 μL of substrate comprising 40 μM 2-thio-PAF [from ethanol stock], 40 μM CPM [from a DMSO stock] and 400 μM NEM (N-ethylmaleimide) [made fresh daily in DMSO] in assay buffer (50 mM HEPES, pH 7.4, 150 mM NaCl, 1 mM CHAPS) was added to 384 well Greiner 784076 black plates. Plates were vortexed for 10 sec. The plate was covered to protect it from light and incubated for 20 min at 25° C. The plates were read for fluorescence intensity at ex: 380 nm/em: 485 nm using Envision plate reader (Perkin Elmer). Raw data were transferred to Excel software and pIC50 data, curve and QC analysis was conducted by using XL fit module in Excel.

[2] = biological target: T2, Lp-PLA2 in human plasma (Homo sapiens, UniProt Q13093); experiment: (3b) Lp-PLA2 human plasma alternative Thio-PAF assay; format: biochemical; settings: pooled human plasma, read-out: pIC50 in the Lp-PLA2 human plasma assay (converted)
T2 construct: from tissue; host or cells: pooled human plasma
T2 sequence (Q13093 22-441): T1 sequence (Q13093 22-441)
Description: (3b) Alternative Thio-PAF Assay
The human plasma assay utilizes the same thioester analog of PAF as described in (1b) “hr ThioPAF” assay. This assay may detect the activity of Lp-PLA2 in human plasma, as determined by specific inhibition by Lp-PLA2 inhibitors.
The thio-PAF assay was run as a quenched 20 μL assay. Compounds source plate was prepared by making 1:3 (by volume) serial dilution of the compounds into pure DMSO on 96-well microplate. 5 μL of compounds on compound source plate were transferred to 96-well Corning 3686 (black) low-volume plates by STAR+(Hamilton) liquid dispenser. 10 μL pooled human plasma, which was previously aliquoted and frozen, was added. Plates were centrifuged for 30 sec at 1000 rpm. After 15 minutes preincubation at room temperature, 5 μL of substrate solution comprising 2 mM 2-thio-PAF [from ethanol stock], 52 μM CPM [from a DMSO stock] and 2.5 mM NEM (N-ethylmaleimide) [made fresh daily in DMSO] in assay buffer (50 mM HEPES, pH 7.4, 150 mM NaCl, 1 mM CHAPS) was added to 96-well Corning 3686 (black) low-volume plates. After 3 mins, reaction was quenched with 10 μL of 5% aqueous trifluoroacetic acid (TFA). Plates were centrifuged 30 sec at 1000 rpm, covered to protect from light and incubated for 10 min at room temperature. Plates were read at ex: 380 nm/em: 485 nm using Envision plate reader (Perkin Elmer). Raw data were transferred to Excel software and pIC50 data, curve and QC analysis was conducted by using XL fit module in Excel.

[3] = (3b) alternative Thio-PAF assay, Examples of 266-412 were tested here

IC50 [1] [µM]	IC50 [2, 3] [µM]	IC50 ([2]; (3a) Thio-PAF assay, Examples 1-265 and 413-430 were tested here) [µM]	SMILES
≤ 10	≤ 0.1		N#Cc1cc(COc2cc3n(c(=O)n2)C[C@H]2C[C@H](N)CN32)ccc1F [Example E386, 5-((((7S,8aR)-7-Amino-1-oxo-1,6,7,8,8a,9-hexahydropyrrolo[1,2′:3,4]imidazo[1,2-c]pyrimidin-3-yl)oxy)methyl)-2-fluorobenzonitrile]
≤ 10	≤ 0.1		N#Cc1cc(COc2cc3n(c(=O)n2)CC2CN(C(=O)CCN)CCN32)ccc1F (centres unmarked) [Example E288, 5-(((2-(3-Aminopropanoyl)-9-oxo-2,3,4,9,11,11a-hexahydro-1H-pyrazino[1′,2′:3,4]imidazo[1,2-c]pyrimidin-7-yl)oxy)methyl)-2-fluorobenzonitrile]
≤ 10	≤ 0.1		Cc1ccc(Oc2c(F)cc(COc3cc4n(c(=O)n3)CC3(COC3)N4C)cc2C#N)cn1 [Example 399, 3-Fluoro-5-(((1-methyl-5-oxo-3,5-dihydro-1H-spiro[imidazo[1,2-c]pyrimidine-2,3′-oxetan]-7-yl)oxy)methyl)-2-((6-methylpyridin-3-yl)oxy)benzonitrile]
≤ 10	≤ 0.1		CC(C)CC(=O)N1CCN2c3cc(OCc4ccc(F)c(C#N)c4)nc(=O)n3CC2C1 (centres unmarked) [Example E293, 2-Fluoro-5-(((2-(3-methylbutanoyl)-9-oxo-2,3,4,9,11,11a-hexahydro-1H pyrazino[1′,2′:3,4]imidazo[1,2-c]pyrimidin-7-yl)oxy)methyl)benzonitrile]
≤ 10	≤ 0.1		NC1(C(=O)N2CCN3c4cc(OCc5ccc(F)c(F)c5)nc(=O)n4CC3C2)CCC1 (centres unmarked) [Example E344, 2-(1-Aminocyclobutanecarbonyl)-7-((3,4-difluorobenzyl)oxy)-3,4,11,11a-tetrahydro-1H-pyrazino[1,2′:3,4]imidazo[1,2-c]pyrimidin-9(2H)-one]
≤ 10	≤ 0.1		CN(C)CCC(=O)N1CCN2c3cc(OCc4ccc(F)c(F)c4)nc(=O)n3CC2C1 (centres unmarked) [Example E337, 7-((3,4-Difluorobenzyl)oxy)-2-(3-(dimethylamino)propanoyl)-3,4,11,11a-tetrahydro-1H-pyrazino[1,2′:3,4]imidazo[1,2-c]pyrimidin-9(2H)-one]
≤ 10	≤ 0.1		NC1(C(=O)N2CCN3c4cc(OCc5ccc(F)c(F)c5)nc(=O)n4CC3C2)CC1 (centres unmarked) [Example E333, 2-(1-Aminocyclopropanecarbonyl)-7-((3,4-difluorobenzyl)oxy)-3,4,11,11a-tetrahydro-1H-pyrazino[1′,2′:3,4]imidazo[1,2-c]pyrimidin-9(2H)-one hydrochloride]
	≤ 0.1		CCOC(=O)C(C)N1CCN2c3cc(OCc4ccc(F)c(F)c4)nc(=O)n3CC2C1 (single isomer, unassigned) [Example E327, Ethyl 2-(7-((3,4-difluorobenzyl)oxy)-9-oxo-3,4,11,11a-tetrahydro-1H-pyrazino[1′,2′:3,4]imidazo[1,2-c]pyrimidin-2(9H)-yl)propanoate]
≤ 10			O=c1nc(NCc2cccc(F)c2F)cc2n1CC1CSCCN21 (centres unmarked) [Example E377, 7-((2,3-Difluorobenzyl)amino)-3,4,11,11a-tetrahydropyrimido[6′,1′:2,3]imidazo[5,1-c][1,4]thiazin-9(1H)-one]

Further lines, the compound ahead of its results:

SMILES	IC50 [1] [µM]	IC50 [2, 3] [µM]	IC50 ([2]; (3a) Thio-PAF assay, Examples 1-265 and 413-430 were tested here) [µM]
N#Cc1cc(COc2cc3n(c(=O)n2)CC2CN(C(=O)C4(N)CC4)CCN32)ccc1F (centres unmarked) [Example E297, 5-(((2-(1-Aminocyclopropanecarbonyl)-9-oxo-2,3,4,9,11,11a-hexahydro-1H-pyrazino[1′,2′:3,4]imidazo[1,2-c]pyrimidin-7-yl)oxy)methyl)-2-fluorobenzonitrile 2,2,2-trifluoroacetate]	≤ 10	≤ 0.1	
O=c1nc(OCc2ccc(F)c(F)c2)cc2n1CC1CN(S(=O)(=O)C3CC3)CCN21 (centres unmarked) [Example E331, 2-(Cyclopropylsulfonyl)-7-((3,4-difluorobenzyl)oxy)-3,4,11,11a-tetrahydro-1H-pyrazino[1′,2′:3,4]imidazo[1,2-c]pyrimidin-9(2H)-one]	≤ 10	≤ 0.1	
N#Cc1cc(COc2cc3n(c(=O)n2)CC2(CCN(Cc4ccccc4)CC2)N3)ccc1F [Example 412, 5-(((1′-Benzyl-5-oxo-3,5-dihydro-1H-spiro[imidazo[1,2-c]pyrimidine-2,4′-piperidin]-7-yl)oxy)methyl)-2-fluorobenzonitrile]	≤ 10		≤ 10
N#Cc1cc(COc2cc3n(c(=O)n2)CC2C[S+]([O-])CCN32)ccc1F (centres unmarked) [Example E366, 2-Fluoro-5-(((2-oxido-9-oxo-1,3,4,9,11,11a-hexahydropyrimido[6′,1′:2,3]imidazo[5,1-c][1,4]thiazin-7-yl)oxy)methyl)benzonitrile]	≤ 10	≤ 0.1	
CS(=O)(=O)N1CCN2c3cc(OCc4ccc(F)c(C#N)c4)nc(=O)n3CC2C1 (centres unmarked) [Example E286, 2-Fluoro-5-(((2-(methylsulfonyl)-9-oxo-2,3,4,9,11,11a-hexahydro-1H-pyrazino[1′,2′:3,4]imidazo[1,2-c]pyrimidin-7-yl)oxy)methyl)benzonitrile hydrochloride]	≤ 10	≤ 0.1	
O=C([C@@H]1CCCN1)N1CCN2c3cc(OCc4ccc(F)c(F)c4)nc(=O)n3CC2C1 (stereo partly drawn) [Example E340, 7-((3,4-Difluorobenzyl)oxy)-2-((S)-pyrrolidine-2-carbonyl)-3,4,11,11a-tetrahydro-1H-pyrazino[1,2′:3,4]imidazo[1,2-c]pyrimidin-9(2H)-one]	≤ 10	≤ 0.1	
N#Cc1cc(COc2cc3n(c(=O)n2)CC2CNC(=O)CN32)ccc1F (centres unmarked) [Example E349, 5-(((3,9-Dioxo-2,3,4,9,11,11a-hexahydro-1H-pyrazino[1′,2′:3,4]imidazo[1,2-c]pyrimidin-7-yl)oxy)methyl)-2-fluorobenzonitrile]	≤ 10	≤ 0.1	
CC(C)C(=O)N1CCN2c3cc(OCc4ccc(F)c(C#N)c4)nc(=O)n3CC2C1 (centres unmarked) [Example E290, 2-Fluoro-5-(((2-isobutyryl-9-oxo-2,3,4,9,11,11a-hexahydro-1H-pyrazino[1′,2′:3,4]imidazo[1,2-c]pyrimidin-7-yl)oxy)methyl)benzonitrile 2,2,2-trifluoroacetate]	≤ 10	≤ 0.1	
O=C(C1CC1)N1CCN2c3cc(OCc4ccc(F)c(F)c4)nc(=O)n3CC2C1 (centres unmarked) [Example E330, 2-(Cyclopropanecarbonyl)-7-((3,4-difluorobenzyl)oxy)-3,4,11,11a-tetrahydro-1H-pyrazino[1′,2′:3,4]imidazo[1,2-c]pyrimidin-9(2H)-one]	≤ 10	≤ 0.1	
N#Cc1cc(COc2ccc(COc3cc4n(c(=O)n3)CC3CSCCN43)cc2C#N)ccc1F (centres unmarked) [Example E365, 5-((2-Cyano-4-(((9-oxo-1,3,4,9,11,11a-hexahydropyrimido[6′,1′:2,3]imidazo[5,1-c][1,4]thiazin-7-yl)oxy)methyl)phenoxy)methyl)-2-fluorobenzonitrile]	≤ 10		
